Each structure is given as a SMILES string.

The IC50 is the midpoint of a concentration-inhibition curve.

The experiment concerns mutant spike proteins including D614G, delta (B.1.617.2), and omicron (B.1.1.529) – hACE2. In kind it is binding, SARS-CoV-2, human. The note with it: read-out: IC50 in all assays with mutant spike proteins.
Turning to `O=C(Nc1ccc(-c2ccc(C(=O)Nc3cccc4cc(S(=O)(=O)O)ccc34)cc2)cc1)c1ccc([N+](=O)[O-])cc1` [DRI-C23041], the IC50 is < 3 µM.

Take `O=C(Nc1ccc(-c2ccc(C(=O)Nc3cccc4c(S(=O)(=O)O)cccc34)cc2)cc1)c1ccc([N+](=O)[O-])cc1` [DRI-C24041]: the IC50 is < 3 µM.

For the compound `O=S(=O)(O)c1ccc(/N=N/c2c(O)ccc3cc(S(=O)(=O)O)ccc23)cc1` [Sunset yellow, sunset yellow FCF], the IC50 was > 500 µM.

For the origin of these results see publication PMC9504289 (Pharmaceuticals, 2022).
